Measured values from ChEMBL document CHEMBL5108059, “Discovery of 2-Methyl-2-(4-(2-methyl-8-(1H-pyrrolo[2,3-b]pyridin-6-yl)-1H-naphtho[1,2-d]imidazol-1-yl)phenyl)propanenitrile as a Novel PI3K/mTOR Inhibitor with Enhanced Antitumor Efficacy In Vitro and In Vivo” (J Med Chem, 2022).

Experiments:
[1] = biological target: T1, Phosphatidylinositol 4,5-bisphosphate 3-kinase catalytic subunit delta isoform (Homo sapiens, UniProt O00329); test: Inhibition of PI3Kdelta (unknown origin) using PIP2 as substrate incubated for 2 hrs in presence of ATP by Kinase Glo luminescence assay
T1 sequence (O00329 whole entry): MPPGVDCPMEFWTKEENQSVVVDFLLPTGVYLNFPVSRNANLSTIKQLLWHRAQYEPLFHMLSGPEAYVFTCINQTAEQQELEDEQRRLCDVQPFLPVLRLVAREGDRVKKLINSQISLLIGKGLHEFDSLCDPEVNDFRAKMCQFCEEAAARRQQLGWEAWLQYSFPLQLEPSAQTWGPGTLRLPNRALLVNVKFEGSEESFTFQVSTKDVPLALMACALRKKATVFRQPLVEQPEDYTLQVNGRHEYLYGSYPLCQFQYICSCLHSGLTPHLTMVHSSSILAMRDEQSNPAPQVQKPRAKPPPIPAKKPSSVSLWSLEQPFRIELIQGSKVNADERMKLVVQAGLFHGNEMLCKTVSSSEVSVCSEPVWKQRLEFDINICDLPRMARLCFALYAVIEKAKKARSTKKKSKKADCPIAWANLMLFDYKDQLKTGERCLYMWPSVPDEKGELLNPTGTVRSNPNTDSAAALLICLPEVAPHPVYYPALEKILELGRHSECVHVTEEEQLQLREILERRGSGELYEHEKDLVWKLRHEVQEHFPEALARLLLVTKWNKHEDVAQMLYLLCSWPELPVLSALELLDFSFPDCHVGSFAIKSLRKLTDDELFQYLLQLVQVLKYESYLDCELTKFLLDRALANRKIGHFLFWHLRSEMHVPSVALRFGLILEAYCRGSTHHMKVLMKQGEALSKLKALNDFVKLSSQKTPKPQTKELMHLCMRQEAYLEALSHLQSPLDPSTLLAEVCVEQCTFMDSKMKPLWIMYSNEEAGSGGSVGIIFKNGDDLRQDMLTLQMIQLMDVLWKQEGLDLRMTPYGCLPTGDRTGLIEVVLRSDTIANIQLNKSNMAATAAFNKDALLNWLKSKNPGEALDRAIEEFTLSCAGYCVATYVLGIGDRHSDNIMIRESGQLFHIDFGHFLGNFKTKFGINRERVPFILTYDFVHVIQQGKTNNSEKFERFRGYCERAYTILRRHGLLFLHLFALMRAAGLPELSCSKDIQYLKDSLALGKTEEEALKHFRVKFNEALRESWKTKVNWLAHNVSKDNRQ

HT-29 = test: Antiproliferative activity against human HT-29 cells with PIK3CA mutation assessed as inhibition of cell growth incubated for 48 to 72 hrs by MTT assay; assay type: functional, cell-based
HCT-15 = test: Antiproliferative activity against human HCT-15 cells with PIK3CA mutation assessed as inhibition of cell growth incubated for 48 to 72 hrs by MTT assay; assay type: functional, cell-based
NCI-H3122 = test: Antiproliferative activity against human NCI-H3122 cells assessed as inhibition of cell growth incubated for 48 to 72 hrs by MTT assay; assay type: functional, cell-based
HeLa [2] = test: Antiproliferative activity against human HeLa cells assessed as inhibition of cell growth incubated for 48 to 72 hrs by MTT assay; assay type: functional, cell-based
[3] = biological target: Serine/threonine-protein kinase mTOR (Homo sapiens, UniProt P42345); test: Inhibition of N-terminal FLAG-tagged recombinant human mTOR (1362 to end residue) using ULight-4EBP1 peptide as substrate incubated for 30 mins in presence of ATP by Lance ultra assay
SW-620 [4] = test: Antiproliferative activity against human SW620 cells assessed as inhibition of cell growth incubated for 48 to 72 hrs by MTT assay; assay type: functional, cell-based
[5] = biological target: Phosphatidylinositol 4,5-bisphosphate 3-kinase catalytic subunit alpha isoform (Homo sapiens, UniProt P42336); test: Inhibition of PI3Kalpha (unknown origin) using PIP2 as substrate incubated for 1 hr in presence of ATP by Kinase Glo luminescence assay
Sequence of Phosphatidylinositol 4,5-bisphosphate 3-kinase catalytic subunit alpha isoform (P42336 whole entry, canonical isoform): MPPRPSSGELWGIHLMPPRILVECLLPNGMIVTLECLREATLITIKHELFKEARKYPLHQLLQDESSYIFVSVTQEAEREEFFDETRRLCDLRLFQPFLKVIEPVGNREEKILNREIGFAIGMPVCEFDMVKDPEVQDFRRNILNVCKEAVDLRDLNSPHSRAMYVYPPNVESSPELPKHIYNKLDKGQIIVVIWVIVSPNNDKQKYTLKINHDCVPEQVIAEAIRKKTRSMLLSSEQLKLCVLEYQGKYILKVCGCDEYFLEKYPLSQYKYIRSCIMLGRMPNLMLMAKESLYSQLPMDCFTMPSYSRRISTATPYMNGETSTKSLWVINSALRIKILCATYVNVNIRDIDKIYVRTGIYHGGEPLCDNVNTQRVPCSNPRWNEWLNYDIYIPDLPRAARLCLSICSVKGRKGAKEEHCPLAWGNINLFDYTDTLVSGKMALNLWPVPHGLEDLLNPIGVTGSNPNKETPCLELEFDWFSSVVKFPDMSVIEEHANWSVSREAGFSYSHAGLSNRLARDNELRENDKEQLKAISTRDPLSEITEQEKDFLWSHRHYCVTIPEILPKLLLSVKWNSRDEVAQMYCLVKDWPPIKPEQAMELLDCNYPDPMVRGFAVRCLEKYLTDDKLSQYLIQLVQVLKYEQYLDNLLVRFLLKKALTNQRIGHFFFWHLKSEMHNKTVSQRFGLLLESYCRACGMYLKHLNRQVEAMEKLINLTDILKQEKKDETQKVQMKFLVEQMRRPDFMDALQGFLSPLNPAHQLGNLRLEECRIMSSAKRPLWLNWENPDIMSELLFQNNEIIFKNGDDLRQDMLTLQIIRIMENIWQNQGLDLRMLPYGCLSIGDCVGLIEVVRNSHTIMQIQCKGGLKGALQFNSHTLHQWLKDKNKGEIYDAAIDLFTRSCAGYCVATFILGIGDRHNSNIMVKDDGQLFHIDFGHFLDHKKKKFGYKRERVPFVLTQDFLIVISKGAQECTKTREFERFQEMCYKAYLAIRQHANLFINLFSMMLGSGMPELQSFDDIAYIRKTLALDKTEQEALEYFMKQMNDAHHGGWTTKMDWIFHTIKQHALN

NCI-H446 = test: Antiproliferative activity against PTEN-null human NCI-H446 cells assessed as inhibition of cell growth incubated for 48 to 72 hrs by MTT assay; assay type: functional, cell-based
SW-620 [6] = test: Antitumor activity against human SW620 cells xenografted in BALB/c nude mouse assessed as tumor growth inhibition at 30 mg/kg, IG administered daily for 30 days and measured every 2 days relative to control; assay type: functional; details: SW-620, po, 720 h, time 30 day, read-out: TGI
HeLa [7] = test: Antitumor activity against human HeLa cells xenografted in BALB/c nude mouse assessed as tumor growth inhibition at 30 mg/kg, IG administered daily for 30 days and measured every 2 days relative to control; assay type: functional; details: po, 720 h, time 30 day, read-out: TGI

| Structure (SMILES) | IC50 [1] | IC50 (HT-29) | IC50 (HCT-15) | IC50 (NCI-H3122) | IC50 (HeLa [2]) | IC50 [3] | IC50 (SW-620 [4]) | IC50 [5] | IC50 (NCI-H446) | inhibition in vivo at 30 mg/kg (SW-620 [6]) | inhibition in vivo at 30 mg/kg (HeLa [7]) |
| --- | --- | --- | --- | --- | --- | --- | --- | --- | --- | --- | --- |
| Cc1nc2cnc3ccc(-c4ccc5[nH]ccc5c4)cc3c2n1-c1ccc(F)cc1 | 57.3 nM | 2720 nM | 1920 nM | 2310 nM | 1790 nM | 49.3 nM | 2530 nM | 29.8 nM | 3080 nM |  |  |
| Cn1c(=O)n(-c2ccc(C(C)(C)C#N)cc2)c2c3cc(-c4cnc5ccccc5c4)ccc3ncc21 [DACTOLISIB] |  | 1010 nM | 910 nM | 960 nM | 1090 nM |  | 870 nM |  | 870 nM | 51.7% | 53.3% |
| Cc1nc2cnc3ccc(-c4cnc5[nH]ccc5c4)cc3c2n1-c1ccc(N2CCOCC2)cc1 | 156 nM | 1020 nM | 1360 nM | 1080 nM | 940 nM | 114 nM | 930 nM | 69.3 nM | 1470 nM |  |  |
| Cc1nc2cnc3ccc(-c4cnc5[nH]ccc5c4)cc3c2n1[C@H](C)c1ccccc1 | 164 nM | 1870 nM | 1430 nM | 1960 nM | 2350 nM | 102 nM | 1650 nM | 79.6 nM | 2780 nM |  |  |
| Cc1nc2cnc3ccc(-c4cnc5[nH]ccc5c4)cc3c2n1-c1ccc(C(F)(F)F)nc1 | 93.1 nM | 1530 nM | 2850 nM | 2360 nM | 3710 nM | 159 nM | 1830 nM | 104 nM | 3210 nM |  |  |
| Cc1nc2cnc3cc(F)c(-c4cnc5[nH]ccc5c4)cc3c2n1-c1ccc(C(C)(C)C#N)cc1 | 28.6 nM | 910 nM | 830 nM | 670 nM | 510 nM | 45.2 nM | 1370 nM | 19.3 nM | 1650 nM |  |  |
| Cc1nc2cnc3ccc(-c4ccc5ccccc5c4)cc3c2n1-c1ccc(F)cc1 | 202 nM | 3140 nM | 9750 nM | 8950 nM | 16800 nM | 190 nM | 13700 nM | 148 nM | 12200 nM |  |  |
| Cc1nc2cnc3ccc(-c4cnc5[nH]ccc5c4)cc3c2n1-c1ccc(C#N)cc1 | 96.4 nM | 1320 nM | 1410 nM | 7730 nM | 5680 nM | 123 nM | 3940 nM | 62.5 nM | 9710 nM |  |  |
| Cc1nc2cnc3ccc(-c4cnc5[nH]ccc5c4)cc3c2n1-c1ccc(F)cc1 | 28.9 nM | 1250 nM | 1130 nM | 2050 nM | 1820 nM | 38.7 nM | 1280 nM | 21.5 nM | 1650 nM |  |  |
| COC(=O)c1ccc(-c2ccc3ncc4nc(C)n(-c5ccc(F)cc5)c4c3c2)cc1 | 336 nM | 18700 nM | > 20000 nM | > 20000 nM | 19800 nM | 206 nM | > 20000 nM | 251 nM | > 20000 nM |  |  |
| CNC(=O)c1ccc(-c2ccc3ncc4nc(C)n(-c5ccc(F)cc5)c4c3c2)cc1 | 133 nM | 9890 nM | 12700 nM | > 20000 nM | > 20000 nM | 157 nM | > 20000 nM | 195 nM | > 20000 nM |  |  |
| Cc1nc2cnc3ccc(-c4cnc5[nH]ccc5c4)cc3c2n1[C@@H](C)c1ccccc1 | 104 nM | 1610 nM | 1520 nM | 2150 nM | 1620 nM | 78.1 nM | 1050 nM | 54.1 nM | 3410 nM |  |  |
| Cc1nc2cnc3ccc(-c4ccc(O)cc4)cc3c2n1-c1ccc(F)cc1 | 132 nM | 3360 nM | 2750 nM | 3730 nM | 2160 nM | 244 nM | 3620 nM | 89.2 nM | 7820 nM |  |  |
| Cc1nc2cnc3ccc(-c4ccc(N)nc4)cc3c2n1-c1ccc(F)cc1 | 40.7 nM | 1210 nM | 2020 nM | 4750 nM | 1710 nM | 93.8 nM | 2130 nM | 51.3 nM | 3610 nM |  |  |
| COc1ccc(-n2c(C)nc3cnc4ccc(-c5cnc6[nH]ccc6c5)cc4c32)cc1 | 17.2 nM | 820 nM | 750 nM | 1330 nM | 960 nM | 67.2 nM | 1870 nM | 26.3 nM | 1510 nM |  |  |
| Cc1nc2cnc3ccc(-c4cnc5[nH]ccc5c4)cc3c2n1-c1ccc(C(C)(C)C#N)cc1 | 21.7 nM | 310 nM | 290 nM | 370 nM | 190 nM | 29.1 nM | 230 nM | 12.5 nM | 1080 nM |  |  |
